Measurements from patent publication US8323706B2, “Antiestrogenic glyceollins suppress human breast and ovarian carcinoma proliferation and tumorigenesis” (The United States of America, as represented by the …, priority 2005, dated 2012).

Columns and labels:
[1] = test system: MCF-7 breast carcinoma cells; assay: MCF-7 xenograft tumor growth in ovariectomized nu/nu mice; type: in vivo; details: estradiol pellet alone; day 20; mean±SEM
Procedure: (§1) Cages, bedding, food, and water were autoclaved before use. […] Tumor size was measured every two days using calipers.
(§2) The in vivo effects of glyceollins on tumor growth formation were determined. MCF-7 or BG-1 cells were implanted into the mammary fat pad of female ovariectomized nude mice. Mice were divided into two groups: those animals implanted s.c. with estradiol pellets and those without. Tumors were implanted using Matrigel (reduced factor) to enhance tumor incidence and promote tumor growth in the presence and absence of estrogen. Glyceollins (or vehicle) were injected daily for 20 days. Measurable tumors were observed on Day 8 for both MCF-7 cells (FIG. 3) and BG-1 cells (FIG. 4). […] Estrogen stimulated the formation of rapidly growing tumors in both MCF-7 and BG-1 implanted mice, reaching a maximal size of 3074±843 mm^3 in MCF-7 and 3836±756 mm^3 in BG-1 implanted animals by day 20 of treatment. In the negative control animals (without estrogen pellets or glyceollins), tumor incidence occurred on […] and tumors grew slowly with a maximal size of 899±24 mm^3 for MCF-7 cells and 976±42 mm^3 for BG-1 cells on day 20 of treatment. […]
(§3) Data Analysis: Data for MCF-7N and BG-1 tumor size were analyzed separately using repeated measures two-way ANOVA with treatment and time as independent factors (SigmaStat 3.1). […]

[2] = test system: BG-1 ovarian carcinoma cells; assay: BG-1 xenograft tumor growth in ovariectomized nu/nu mice; type: in vivo; details: estradiol pellet alone; day 20; mean±SEM
Procedure: as §1, §2, §3

Mouse uteri = assay: Uterine weight and morphology (uterotrophic assay) in nu/nu mice
[3] = test system: progesterone receptor (PR); assay: Progesterone receptor immunohistochemistry in BG1 tumor explants; type: in vivo, mice; details: treatment alone vs control; BG1 tumors
Source text: (§4) Tumor explants were resected at necropsy, fixed in 70% ethanol, embedded in paraffin, and immunostained using a primary monoclonal antibody for human progesterone receptor (PR) (NCL-PGR, Novocastra, Newcastle-upon-Tyne, UK). Staining methods included antigen-retrieval with citrate buffer (pH 6.0), biotinylated rabbit anti-mouse Fc antibody as a linking reagent, alkaline phosphatase-conjugated streptavidin as the label, and Vector Red as the chromogen (Vector Laboratories, Burlingame, Calif.). Cell staining was quantified by a computer-assisted counting technique, using a grid filter to select cells for counting (Darvill et al., supra; Burow et al., supra). At least two microscopic fields were randomly selected for each tumor and 200 cells were counted at 40× magnification. Numbers of positively stained cells were expressed as a percentage of the total number examined. All measurements were made blinded to treatment group.
(§5) Progesterone receptor expression is an estrogen-sensitive marker driven by ER transactivation. In this study we used PR immunostaining to evaluate (a) whether glyceollin treatment alone was stimulating the ER as an agonist and (b) whether glyceollin treatment with estradiol (E2) was antagonizing ER activation.

[4] = test system: progesterone receptor (PR); assay: Progesterone receptor immunohistochemistry in MCF-7 tumor explants; type: in vivo, mice; details: treatment alone vs control; MCF-7 tumors
Source text: as §4, §5

[5] = test system: MCF-7 breast carcinoma cell; assay: In vitro MCF-7 colony (clonogenicity) assay; type: cell-based, human; details: estrogen treatment alone
Procedure: The MCF-7N cell variant is a subclone of MCF-7 cells from the American Type Culture Collection (Manassas, Va.) that was generously provided by Louise Nutter (University of Minnesota, Minneapolis, Minn.) and has been previously described (Graham et al., supra). The BG-1 cell line has been previously described. MCF-7 and BG-1 cells were grown in Dulbecco's modified minimal medium (pH 7.4; Life Technologies, Inc., Grand Island, N.Y.) supplemented with 10% fetal bovine serum (Hyclone, Salt Lake City, Utah). For studies with estrogen, the cells were cultured in medium supplemented with 5% charcoal-stripped fetal bovine serum. The cells were incubated at 37° C. in an atmosphere of 5% CO2 and air.
MCF-7 cells are plated at 10^3/well in 6 well Cluster dishes, and incubated overnight. Cells are cultured and treated in DMEM without phenol red; phenol red interacts with estrogen receptors. Treatment and control plates were incubated at 37° C., 5% CO2. Plates were observed periodically. When colonies were of a size of 50 cells or more, at Day 14, cells were fixed with glutaraldehyde for 30 min at 37° C., washed, and stained with Crystal violet (0.4%) for 1 hr. Colonies were counted manually. This method is used to study the effects of chemical or physical agents on cell survival and proliferation; 1 colony=1 cell. […]

Row | SMILES | tumor size (maximal) [1] | tumor size (maximal) [2] | uterine histology (Mouse uteri; H&E-stained uteri, treatment alone) | Uterine area, uterine diameter, and epithelial height (Mouse uteri; treatment alone vs control) | PR expression [3] | PR expression [4] | colony formation [5] | uterine fixed weight over control (Mouse uteri; treatment alone, 20 days)
1 | C[C@]12CC[C@@H]3c4ccc(O)cc4CC[C@H]3[C@@H]1CC[C@@H]2O [Glyceollin E2, 17β-estradiol] | 3074±843 mm^3 | 3836±756 mm^3 | markedly larger with epithelial pseudostratification, stromal edema and hyperplasia, and increased numbers of endometrial glands | significantly increased | significantly increased PR expression | significantly increased PR expression | enhanced colony formation | 
2 | CC/C(=C(\c1ccccc1)c1ccc(OCCN(C)C)cc1)c1ccccc1 [tamoxifen] |  |  |  |  |  |  |  | increase uterine fixed weight over control
